Assay results from ChEMBL document CHEMBL3885881, “DrugMatrix”.

Species on record: Rattus norvegicus
Test: DrugMatrix - Regimen: Daily Repeat
Type: toxicity, organism-based, Sprague-Dawley
Set-up: regimen Daily Repeat, gender Male, age 6-8 weeks
Settings: in vivo, sc, route subcutaneous, […]; for ABSOLUTE BASOPHIL / ABSOLUTE EOSINOPHIL / ABSOLUTE LYMPHOCYTE / ABSOLUTE MONOCYTE / ABSOLUTE SEGMENTED NEUTROPHIL / BASOPHIL / EOSINOPHIL / ERYTHROCYTE COUNT / HEMATOCRIT / HEMOGLOBIN / LEUKOCYTE COUNT / LYMPHOCYTE / MEAN CORPUSCULAR HEMOGLOBIN / MEAN CORPUSCULAR HEMOGLOBIN CONCENTRATION / MEAN CORPUSCULAR VOLUME / MONOCYTE / NEUTROPHIL / NUCLEATED RED BLOOD CELLS / PLATELET COUNT: tissue Blood; for ALANINE AMINOTRANSFERASE / ALBUMIN / ALKALINE PHOSPHATASE / ASPARTATE AMINOTRANSFERASE / BLOOD UREA NITROGEN / CARBON DIOXIDE / CHLORIDE / CHOLESTEROL / CREATINE PHOSPHOKINASE / CREATININE / GLUCOSE / LACTATE DEHYDROGENASE / LIPASE / PHOSPHORUS / POTASSIUM / SODIUM / TOTAL BILIRUBIN / TOTAL PROTEIN / URIC ACID: tissue Plasma
[1] = 56 mg/kg, 120 h, dose level High, time 5 day
[2] = 72 h, dose 3.3 mg/Kg, dose level Low, time 3 day
[3] = 120 h, dose 3.3 mg/Kg, dose level Low, time 5 day

## C[C@]12CCC(=O)C=C1CC[C@@H]1[C@@H]2[C@@H](O)C[C@@]2(C)[C@H]1CC[C@]2(O)C(=O)CO [HYDROCORTISONE]
[1]
  ABSOLUTE BASOPHIL: 0 CELLS/uL
  ABSOLUTE EOSINOPHIL: 0 CELLS/uL
  ABSOLUTE LYMPHOCYTE: 1058 CELLS/uL
  ABSOLUTE MONOCYTE: 166.67 CELLS/uL
  ABSOLUTE SEGMENTED NEUTROPHIL: 5575.33 CELLS/uL
  BASOPHIL: 0%
  EOSINOPHIL: 0%
  ERYTHROCYTE COUNT: 6.58 x10E6/uL
  HEMATOCRIT: 40.47%
  HEMOGLOBIN: 15.5 G/DL
  LEUKOCYTE COUNT: 6.8 x10E3/uL
  LYMPHOCYTE: 17%
  MEAN CORPUSCULAR HEMOGLOBIN: 23.6 pg
  MEAN CORPUSCULAR HEMOGLOBIN CONCENTRATION: 38.3 G/DL
  MEAN CORPUSCULAR VOLUME: 61.63 fL
  MONOCYTE: 2.33%
  NEUTROPHIL: 80.67%
  NUCLEATED RED BLOOD CELLS: 0 /100WBC
  PLATELET COUNT: 1367.33 x10E3/uL
  ALANINE AMINOTRANSFERASE: 309 u/L
  ALBUMIN: 4.87 G/DL
  ALKALINE PHOSPHATASE: 497.33 u/L
  ASPARTATE AMINOTRANSFERASE: 475.33 u/L
  BLOOD UREA NITROGEN: 23 mg/dL
  CARBON DIOXIDE: 31.33 mmol/L
  CHLORIDE: 95 MEQ/L
  CHOLESTEROL: 140 mg/dL
  CREATINE PHOSPHOKINASE: 224.67 u/L
  CREATININE: 0.49 mg/dL
  GLUCOSE: 479 mg/dL
  LACTATE DEHYDROGENASE: 701 u/L
  LIPASE: 15 u/L
  PHOSPHORUS: 12.63 mg/dL
  POTASSIUM: 5.83 MEQ/L
  SODIUM: 145.23 MEQ/L
  TOTAL BILIRUBIN: 0.17 mg/dL
  TOTAL PROTEIN: 6.73 G/DL
  URIC ACID: 1.57 mg/dL
[2]
  ABSOLUTE BASOPHIL: 0 CELLS/uL
  ABSOLUTE EOSINOPHIL: 0 CELLS/uL
  ABSOLUTE LYMPHOCYTE: 9134.67 CELLS/uL
  ABSOLUTE MONOCYTE: 0 CELLS/uL
  ABSOLUTE SEGMENTED NEUTROPHIL: 898.67 CELLS/uL
  BASOPHIL: 0%
  EOSINOPHIL: 0%
  ERYTHROCYTE COUNT: 5.23 x10E6/uL
  HEMATOCRIT: 33.47%
  HEMOGLOBIN: 13.37 G/DL
  LEUKOCYTE COUNT: 10.03 x10E3/uL
  LYMPHOCYTE: 90.67%
  MEAN CORPUSCULAR HEMOGLOBIN: 25.6 pg
  MEAN CORPUSCULAR HEMOGLOBIN CONCENTRATION: 39.93 G/DL
  MEAN CORPUSCULAR VOLUME: 64.07 fL
  MONOCYTE: 0%
  NEUTROPHIL: 9.33%
  NUCLEATED RED BLOOD CELLS: 0 /100WBC
  PLATELET COUNT: 1185.33 x10E3/uL
  ALANINE AMINOTRANSFERASE: 42.33 u/L
  ALBUMIN: 4.73 G/DL
  ALKALINE PHOSPHATASE: 429 u/L
  ASPARTATE AMINOTRANSFERASE: 94.33 u/L
  BLOOD UREA NITROGEN: 15.67 mg/dL
  CARBON DIOXIDE: 32.67 mmol/L
  CHLORIDE: 101.33 MEQ/L
  CHOLESTEROL: 78.67 mg/dL
  CREATINE PHOSPHOKINASE: 185 u/L
  CREATININE: 0.23 mg/dL
  GLUCOSE: 137.67 mg/dL
  LACTATE DEHYDROGENASE: 131.33 u/L
  LIPASE: 9.67 u/L
  PHOSPHORUS: 12.3 mg/dL
  POTASSIUM: 6.34 MEQ/L
  SODIUM: 150.8 MEQ/L
  TOTAL BILIRUBIN: 0.3 mg/dL
  TOTAL PROTEIN: 6.73 G/DL
  URIC ACID: 0.83 mg/dL
[3]
  ABSOLUTE BASOPHIL: 0 CELLS/uL
  ABSOLUTE EOSINOPHIL: 115 CELLS/uL
  ABSOLUTE LYMPHOCYTE: 10473.33 CELLS/uL
  ABSOLUTE MONOCYTE: 38.33 CELLS/uL
  ABSOLUTE SEGMENTED NEUTROPHIL: 1440 CELLS/uL
  BASOPHIL: 0%
  EOSINOPHIL: 1%
  ERYTHROCYTE COUNT: 5.54 x10E6/uL
  HEMATOCRIT: 36.47%
  HEMOGLOBIN: 14.6 G/DL
  LEUKOCYTE COUNT: 12.07 x10E3/uL
  LYMPHOCYTE: 87%
  MEAN CORPUSCULAR HEMOGLOBIN: 26.37 pg
  MEAN CORPUSCULAR HEMOGLOBIN CONCENTRATION: 40.07 G/DL
  MEAN CORPUSCULAR VOLUME: 65.8 fL
  MONOCYTE: 0.33%
  NEUTROPHIL: 11.67%
  NUCLEATED RED BLOOD CELLS: 0 /100WBC
  PLATELET COUNT: 1230 x10E3/uL
  ALANINE AMINOTRANSFERASE: 51.67 u/L
  ALBUMIN: 4.73 G/DL
  ALKALINE PHOSPHATASE: 334.67 u/L
  ASPARTATE AMINOTRANSFERASE: 73 u/L
  BLOOD UREA NITROGEN: 15.33 mg/dL
  CARBON DIOXIDE: 31.33 mmol/L
  CHLORIDE: 104 MEQ/L
  CHOLESTEROL: 66 mg/dL
  CREATINE PHOSPHOKINASE: 123.33 u/L
  CREATININE: 0.18 mg/dL
  GLUCOSE: 160 mg/dL
  LACTATE DEHYDROGENASE: 97.33 u/L
  LIPASE: 9.33 u/L
  PHOSPHORUS: 14.23 mg/dL
  POTASSIUM: 6.63 MEQ/L
  SODIUM: 149.93 MEQ/L
  TOTAL BILIRUBIN: 0.2 mg/dL
  TOTAL PROTEIN: 6.63 G/DL
  URIC ACID: 1.7 mg/dL
